Tests used:
bone resorption [1] = assay: Tablets given orally to a patient afflicted with Paget's disease (Example 7); format: in vivo; details: 25 mg P per tablet, orally twice daily for 6 months, patient of approximately 70 kilograms
Description: Tablets are prepared by conventional methods, formulated as follows: […]

bone resorption [2] = assay: Schenk model, in vivo bone resorption inhibition; design: species or system male Sprague Dawley rats; details: subcutaneous injection, daily for 7 days, tibia metaphyseal trabecular bone content
Description: The compounds are evaluated for in vivo bone resorption inhibition and mineralization inhibition in an animal model system known in the field of bone metabolism as the Schenk Model. The general principles of this model system are disclosed in Shinoda et al., Calcif.
Preweaning 17-day-old (30 gms) male Sprague Dawley rats (Charles River Breeding Laboratories) are shipped with their mothers and placed in plastic cages with their mothers upon arrival. At 19 days of age, pups receiving Rat Chow and water ad libitum are randomly allocated into treatment or control groups comprising seven animals per group. On day 1 and again on day 7 all animals are given an intraperitoneal ("IP") injection of Calcein (1% solution in 0.9% saline solution; dosed at 0.2 ml/100 g body weight). On day 4 all animals are given an IP injection of tetracycline hydrochloride (1% solution in 0.9% saline solution; dosed at 0.2 ml/100 g body weight). These compounds label actively mineralizing bone and cartilage.
All solutions are prepared for subcutaneous injection in 0.9% normal saline and adjusted to pH 7.4 using NaOH and/or HCl. Dose solution calculation is made by considering the mass of powder (based on molecular weight, hydration) of the active material in mg/kg (body weight) that corresponds to mgP/kg. Concentrations are based on dosing 0.2 ml/100 g body weight. […] Compounds showing activity at 0.1 mg P/kg/day are then tested at logarithmic decrements down to 0.001 mg P/kg/day. Adjustments in dosage based on changes in body weight are made on a daily basis.
On day 8 after the start of dosing, all animals are sacrificed by IP overdose of pentabarbitol. Tibias are dissected free and placed in 70% ethyl alcohol. […] The tibia is sectioned longitudinally through the metaphyseal area. Specimens are stained on one surface with silver nitrate and mounted on microscope slides for evaluation with a Quantimet Image Analyzer (Cambridge Instruments, Inc.) using both incandescent and ultraviolet illumination. Metaphyseal trabecular bone content is measured in the region between the fluorescent label and the growth plate: expressed as percent of total area (bone + marrow). Epiphyseal growth plate width is obtained as the mean value of 10 equally-spaced measurements across the section.
Statistical evaluation of data is made using parametric and non-parametric analysis of variance and Wilcoxons rank sum test to determine a statistically significant effect compared to control animals.
The Schenk model provides data for in vivo bone resorption inhibition by the compounds.

[3] = system: parathyroid hormone (PTH)-induced rise in serum total and ionized calcium levels; assay: Thyroparathyroidectomized (TPTX) rat model, in vivo bone resorption inhibition potency; design: species or system male Wistar rats; details: subcutaneous injection, daily for 4 days, TPTX rats, PTH challenge; lowest dose that decreases the rise in serum calcium
Description: The compounds are evaluated for in vivo bone resportion inhibition potency by an animal model system known as the thyroparathyroidectomized (TPTX) rat model. The general principles of this model system are disclosed in Russell et al., Calcif. Tissue Research, 6, 183-196 (1970), and in Muhlbauer and Fleisch, Mineral Electrolyte Metab., 5, 296-303 (1981), the disclosures of which are incorporated herein by reference. The basic biochemical concept of the TPTX system is inhibition of the parathyroid hormone (PTH)-induced rise in serum total and ionized calcium levels by the respective bone active polyphosphonates.
Low calcium and low phosphorous diets used are prepared by Teklad^R Test Diets (Harlan Industries, Madison, Wisconsin 53711) in a pellet form of approximately 0.18% calcium and 0.22% phosphorous. The diets contain all the essential vitamins and minerals required for the rat, with the exception of calcium and phosphorous. The calcium and phosphorous levels of the pellets are verified analytically.
PTH is acquired as a powdered bovine extract (Sigma Chemical Co., P. O. Box 14508, St. Louis, Missouri, order #P-4410). PTH is prepared in 0.9% saline such that the final concentration is 100 µg PTH/ml, or approximately 200 U.S.P. units/ml. All solutions are filtered through a #4 Whatman Filter Paper and refiltered through a 0.45 µm Metricel ^R filter.
All solutions of compounds to be tested for bone resorption inhibition potency are prepared for subcutaneous injection in 0.9% normal saline and adjusted to pH 7.4 using NaOH and/or HCl. Dose solution calculation is made by considering the mass of powder (based on molecular weight, hydration) of the active material in mg/kg (body weight) that corresponds to mg P/kg. Concentrations are based on dosing 0.2 ml/100 grams of body weight. Typically, all compounds are administered at 0.01, 0.1, and 1.0 mg P/kg/day for 4 days in order to determine the lowest effective dose ("LED"). Where necessary the test is repeated, whereby the animals are administered with 0.5 LED in order to refine the determination of LED. Adjustments in dosage based on changes in body weight are made on a daily basis.
In this study 50 male Wistar rats weighing approximately 150-160 grams are thyroparathyroidectomized surgically by the breeder (Charles River Breeding Laboratories). All rats are double housed on arrival in suspended cages with Purina Laboratory Rodent Chow^R and tap water ad libitum. After acclimation to the laboratory environment for 3-5 days, the rats are placed on a low calcium, low phosphorous (.18%/.22%) diet (Teklad^R) and given 2% (W/V) calcium gluconate supplemented deionized water via water bottles.
On day three of low calcium diet, all rats are weighed. On day four, all rats are anesthetized with Ketaset^R (Ketamine Hydrochloride, 100 mg/ml, Bristol Myers), 0.10 ml/rat, and then bled from the retro-orbital venous plexus for serum total calcium analysis using Flame Atomic Absorption (FAA) or Nova 7+7 Automated Calcium Analyzer. All rats weighing less than 150 grams are eliminated from the study. Animals are then randomized statistically such that the mean total serum calcium for each group is the same. Only rats deemed hypocalcemic (total serum calcium ≦8.0 mg/dl) are placed in study groups comprising six animals per group.
Treatments with the various experimental compounds commence on day 6 and last through day 9 of the study. Dose solutions are prepared to be given at a constant rate of 0.2 ml/100 grams of body weight subcutaneously in the vental skin flap where the hind leg meets the torso. All rats are weighed and dosed daily. A 25 gauge 5/8" needle is used to administer drug, alternating right and left dose sites daily. On day 8, animals are changed to deionized, distilled water via water bottles. On day 9 all rats are fasted in the afternoon at approximately 4:0 P.M. On day 10 of study no treatment is given. […]

bone resorption [4] = assay: Capsules given orally to a patient afflicted with osteoporosis (Example 6); format: in vivo; details: 25 mg P per capsule, orally twice daily for 6 months, patient of approximately 70 kilograms
Description: Capsules are prepared by conventional methods, comprised as follows: […]

[5] = system: hypercalcemia of malignancy; assay: Injectable solution in patients with hypercalcemia of malignancy (Example 8); format: in vivo; details: 0.07 mg P in 1.0 ml saline, pH 7.4, one injection daily for 4 days, patients of approximately 70 kilograms
Description: Injectable solutions are prepared by conventional methods using 1.0 ml of physiological saline solution and 0.07 mg P of N-(2'-(3'-methyl)-piperidinylidene)-amino-methane diphosphonic acid, adjusted to pH = 7.4.

hamsters' incisors = details: parenteral administration to hamsters; Landeck and Binus 1980; cited from earlier work
skeleton = details: Technetium-99m labelled, bone scintigraphy; Unterspann 1976; cited from earlier work

SMILES	Lowest Effective (Antiresorptive) Dose - Schenk; Schenk LED (bone resorption [2]) [mg/P/kg]	Lowest Effective (Antiresorptive) Dose-TPTX [3] [mg P/kg]	other results
O=P(O)(O)C(O)(CC1CCCCN1)P(=O)(O)O (stereo not shown) [2-(2'-piperidinyl)-1-hydroxy-ethane-1,1-diphosphonic acid]	–	–	bone resorption in a patient afflicted with Paget's disease (bone resorption [1]): substantially reduce bone resorption
O=P(O)(O)C(CC1CCCCN1)P(=O)(O)O (stereo not shown) [2-(2'-piperidinyl)-EDP, 2-(2'-piperidinyl)-ethane-1,1-diphosphonic acid]	0.01	0.01	bone resorption in a patient afflicted with osteoporosis (bone resorption [4]): substantially reduce bone resorption
NCCC(O)(P(=O)(O)O)P(=O)(O)O [APD, 3-amino propane-1-hydroxy-1,1-DP]	0.1	0.1	–
O=P(O)(O)C(Cl)(Cl)P(=O)(O)O [Cl₂MDP, dichloromethane DP]	1.0	1.0	–
CC(O)(P(=O)(O)O)P(=O)(O)O [EHDP, ethane-1-hydroxy-1,1-diphosphonic acid]	1.0	1.0	–
O=P(O)(O)C(NC1=NCCCN1)P(=O)(O)O [N-(2'-(1',3'-diazinylidene))AMDP, N-(2'-(1',3'-diazinylidene))-aminomethane diphosphonic acid]	–	0.001	–
CC1CCCN=C1NC(P(=O)(O)O)P(=O)(O)O (stereo not shown) [N-(2'-(3'-methyl)piperidinylidene)AMDP, N-(2'-(3'-methyl)-piperidinylidene)-amino-methane diphosphonic acid]	0.001	0.001	alleviation of hypercalcemia of malignancy [5]: appreciable alleviation of hypercalcemia of malignancy
O=P(O)(O)C(N1CCCCC1)P(=O)(O)O [N-piperidinyl-methane-diphosphonic acid]	–	–	effect on the mineralization of the incisors (hamsters' incisors): Little or no effect on the mineralization of the incisors; skeleton activity compared with EHDP (skeleton): less skeleton activity than EHDP

From EP0274158B1, “Novel heterocycle-substituted diphosphonate compounds, pharmaceutical compositions, and methods of treating abnormal calcium and phosphate matabolism” (Norwich Eaton Pharmaceuticals, Inc., priority 1986, dated 1988)
